The source of these data is patent publication US20240016777A1, “COMPOUNDS AND METHODS FOR TREATING VIRAL INFECTIONS” (priority 2020, published 2024).

The target in this experiment is SARS-CoV-2 M^pro (Severe acute respiratory syndrome coronavirus 2 (2019-nCoV) (SARS-CoV-2), UniProt P0DTD1). Description: biochemical.
[1] abbreviates: read-out: Activity (% enzyme activity by fluorescence relative to initial enzyme activity), compound at 17 μM, duplicates, 20 min pre-incubation.

Read-outs that look alike come from different tables or passages of the source. Where only a bound is given, the exact number is not on record here.

As for `CC(C)=CCc1cc(C2CC(=O)c3c(O)cc(O)cc3O2)c(CC=C(C)C)c(O)c1O` (racemic) [(+/−)-Sigmoidin A], the remaining activity at 17 µM under setting [1] fell in the range of 10 to 80%.
On the same count and under the same terms, next, `COc1ccc2c(c1CC=C(C)C)O[C@H](c1ccc(O)cc1O)CC2` (stereo in doubt) [2′,4′-Dihydroxy-7-methoxy-8-prenylflavan]: greater than 80%; `COc1cc(O)c(CC=C(C)C)c2c1C(=O)[C@H](O)[C@@H](c1ccc(O)cc1)O2` (stereo in doubt) [3,7,4′-Trihydroxy-5-methoxy-8-prenylflavanone]: greater than 80%.
The same measure, in the same setting: next, `CC(C)=CCc1c(O)ccc([C@H]2COc3c(CC=C(C)C)c(O)cc(O)c3C2=O)c1O` (stereo in doubt) [5,7,2′,4′-Tetrahydroxy-8,3′-di(gamma,gamma-dimethylallyl)-isoflavanone]: 10 to 80%; `COc1ccc([C@@H]2CC(=O)c3c(O)cc(O)c(CC=C(C)C)c3O2)cc1O` (stereo in doubt) [5,7,3′-Trihydroxy-4′-methoxy-8-prenylflavanone]: greater than 80%; `CC(C)=CCc1c(O)cc(O)c2c(=O)c(-c3ccc(O)cc3O)coc12` [2,3-dehydrokievitone]: 10 to 80%.
As for `O=c1c(-c2ccc(O)cc2O)coc2cc(O)cc(O)c12` [2′-hydroxygenistein], under setting [1], the remaining activity at 17 µM is greater than 80%.
As for `C=C(C)[C@H](CC=C(C)C)Cc1c(O)cc(OC)c2c1O[C@H](c1ccc(O)cc1OC)CC2=O` [2′-methoxykurarinone], the remaining activity at 17 µM under setting [1] was greater than 80%.
The same measure, in the same setting: next, `COc1ccc(-c2oc3c(CC=C(C)C)c(O)cc(O)c3c(=O)c2O[C@@H]2O[C@@H](C)[C@H](O)[C@@H](O)[C@H]2O[C@@H]2O[C@@H](C)[C@H](O)[C@@H](O)[C@H]2O)cc1` [2″-O-Rhamnosylicariside II]: 10 to 80%; `CC(C)=CCc1cc(-c2coc3cc(O)cc(O)c3c2=O)cc(CC=C(C)C)c1O` [3′,5′-Diprenylgenistein]: greater than 80%.
The same measure, in the same setting: under `CC(C)=CCC/C(C)=C/Cc1c(O)ccc(-c2oc3cc(O)cc(O)c3c(=O)c2CC=C(C)C)c1O` [3′-Geranyl-3-prenyl-2′,4′,5,7-tetrahydroxyflavone] stands 10 to 80%; under `CC(C)=CCc1c(O)cc2oc(-c3ccc(O)cc3)cc(=O)c2c1O` [4′,5,7-Trihydroxy-6-prenylflavone], greater than 80%; under `COc1ccc([C@@H]2CC(=O)c3c(O)cc(O)cc3O2)cc1CC=C(C)C` [4′-O-Methyllicoflavanone], 10 to 80%.
Take `CC(C)=CCC/C(C)=C/Cc1c(-c2ccc(O)cc2O)oc2cc(O)cc(O)c2c1=O` [5,7,2′,4′-Tetrahydroxy-3-geranylflavone]: under “compound at 17 μM, duplicates, 20 min pre-incubation, read-out: Activity (% enzyme activity by fluorescence relative to initial enzyme activity)”, the remaining activity at 17 µM lay within 10 to 80%.
In the case of `COc1c(-c2cc(O)c(O)c(CC=C(C)C)c2)oc2c(CC=C(C)C)c(O)cc(O)c2c1=O` [5,7,3′,4′-Tetrahydroxy-3-methoxy-8,5′-diprenylflavone], the remaining activity at 17 µM under setting [1] is greater than 80%.
For `COc1c(-c2ccc(O)c(O)c2)oc2c(C/C=C(\C)CCC=C(C)C)c(O)cc(O)c2c1=O` [5,7,3′,4′-Tetrahydroxy-3-methoxy-8-geranylflavone], the remaining activity at 17 µM under setting [1] was greater than 80%.
On the same count and under the same terms, next, `COc1c(O)cc2oc(-c3ccc(O)c(CC=C(C)C)c3)c(OC)c(=O)c2c1O` [5,7,4-Trihydroxy-3,6-dimethoxy-3-prenylflavone]: greater than 80%; `COc1c(O)cc2oc(-c3cc(CC=C(C)C)c(O)c(CC=C(C)C)c3)c(OC)c(=O)c2c1O` [5,7,4′-Trihydroxy-3,6-dimethoxy-3′,5′-diprenylflavone]: greater than 80%.
The same measure, in the same setting: under `CC(C)=CCc1cc([C@@H]2CC(=O)c3c(O)cc(O)c(CC=C(C)C)c3O2)cc(CC=C(C)C)c1O` [5-Hydroxysophoranone] stands greater than 80%.
As to `CC(C)=CCC/C(C)=C/Cc1cc(-c2cc(=O)c3c(O)cc(O)cc3o2)c(O)cc1O` [5′-Geranyl-5,7,2′,4′-tetrahydroxyflavone], under setting [1], the remaining activity at 17 µM is greater than 80%.
